Data set [1] concerns the target T1, catechol-O-methyltransferase (Rattus norvegicus, UniProt P22734).
T1 sequence (P22734 1-221 isoform P22734-2): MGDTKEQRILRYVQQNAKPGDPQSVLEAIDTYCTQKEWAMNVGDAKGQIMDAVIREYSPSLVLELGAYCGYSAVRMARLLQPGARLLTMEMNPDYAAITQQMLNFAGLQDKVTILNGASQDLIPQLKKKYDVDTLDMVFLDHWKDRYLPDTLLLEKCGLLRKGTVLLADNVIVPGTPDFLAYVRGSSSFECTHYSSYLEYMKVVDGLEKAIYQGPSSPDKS
Description: Protection of the catecholamines: incubation of catechol-O-methyltransferase with adrenalin and orthodiphenol (method of Axelrod). In kind it is biochemical. To be noted: stoichiometric amounts of adrenalin and orthodiphenol, after 30 minutes. An excerpt:
Whether administered orally or parenterally they undergo in the organism a monomethylation on one of the two hydroxyl groups, as do all orthodiphenols, (J. Axelrod and M. J. Laroche, 1959, Science, 130, p 800). This monomethylation is due to the action of the catechol-O-methyltransferases (C.O.M.T.), S-adenosyl-L-methionine providing the methyl radicals (J. Axelrod and R. Tomchick, 1958, J. Biol. Chem. 233 p.702). This methylation occurs in the physiological catecholamines, for example, adrenalin, as well as in the synthetic orthodiphenols.
As methylation is a first stage in the destructive pathway, this competition serves to protect the natural catecholamines from early destruction, (J. M. Gazave, P. Canu, M. Baques, and F. Martin, 1971, Biochem and Experim. Biol., X p.89).
Using the techniques of Axelrod et al (op.cit.) it is possible to quantify this effect for various compounds, as the intensity of the effect varies, being dependent on the chemical composition and physical properties, especially the solubility of the compound.
By incubating a catechol-O-methyltransferase with stoichiometric amounts of adrenalin and an orthodiphenol according to the method of Axelrod, determining the quantity of adrenalin protected ie. non-methylated after 30 minutes the extent of the protection given by the product studied can be evaluated.

The test system of the next data set is guinea pig. Description: Capillary resistance on the guinea pig (technique of Parrot and Canu). The format is in vivo. An excerpt: Experiments on capillary resistance on the guinea pig using the technique of J-L. Parrot and P. Canu, 1964, Arch. […] (By comparison trioxyethylrutine gives an increase of 13%).
For the next data set, the system named is mice. Description: Anti-inflammation effect on vessels using croton oil on mice (technique of Bounameaux and Lecomto). The format is in vivo. An excerpt:
Some of the compounds of the formula I have other interesting properties. Thus the anti-inflammation effect on vessels evaluated according to the technique of Y. Bounameaux and J. Lecomto, 1955, C.R. Soc.

The nature of data set [2]: in vivo. To be noted: rat, ip, acute toxicity, intraperitoneal administration, rats, read-out: DL50 A. IP.
The nature of data set [3]: in vivo. To be noted: rat, acute toxicity, oral administration, rats, read-out: DL 50 A.O.
The next data set relates to rats. Description: Research into the methemoglobinising properties (spectrophotometric technique of Evelyn and Malby). In kind it is in vivo. To be noted: rats treated for 75 days at 0.20 g per kg body weight per day. The source says: Certain phenols, in particular pyrocatechol (1,2-dihydroxybenzene) and pyrogallol (1,2,3-trihydroxybenzene), when administered either orally or parenterally to an organism bring about a transformation of the oxyhaemoglobin of the blood to methemoglobin. In oxyhaemoglobin, the iron is in the ferrous state (Fe^+^+) and can transport oxygen; whereas in methemoglobin, the iron is in the ferric state (Fe ^+^+^+) and is unsuitable for transporting oxygen.
It therefore appeared necessary to try to discover if the polyhydroxy compounds used in the preparations of the present invention, in particular 2,3,3',4,4',5'-hexahydroxy benzophenone, would also act as methemoglobinising agents.
This study was carried out using pyrogallol as the comparative substance and the spectrophotometric technique of Evelyn and Malby, (in R. Lecoq, 1972, Analyses Medicales, 2, p.1699): […]

SMILES strings stand for the structures. Like-named read-outs stand apart in the source and are kept apart here.

For `O=C(c1ccc(O)c(O)c1)c1cccc(O)c1O` [2,3,3',4'-Tetrahydroxybenzophenone, 2,3,3',4'-tetrahydroxybenzophenone], the “protection of adrenalin (non-methylated)” value in data set [1] was no less than 90%. Further, the “increase in the capillary resistance” value with guinea pig is given as 56%. Moreover, in the data set with mice, the “anti-inflammation effect on vessels” value is recorded as “anti-inflammatory properties”.

With `C[C@@H]1O[C@@H](OC[C@H]2O[C@@H](Oc3c(-c4ccc(OCCO)c(OCCO)c4)oc4cc(OCCO)cc(O)c4c3=O)[C@H](O)[C@@H](O)[C@@H]2O)[C@H](O)[C@H](O)[C@H]1O` [trioxyethylrutine, reference compound], the “increase in the capillary resistance” value in the data set with guinea pig amounted to 13%.

In the case of `O=C(c1cc(O)c(O)c(O)c1)c1ccc(O)c(O)c1O` [2,3,3',4,4',5'-Hexahydroxybenzophenone, 2,3,3',4,4',5'-hexahydroxybenzophenone], the LD50 in the data set “in vivo [2]” turned out to be 355 mg/kg; in “in vivo [3]” it was 1420 mg/kg. Further, in the data set with rats, the “methemoglobin in the blood” value is reported as “no methemoglobin could be detected”. Besides, in data set [1], the “protection of adrenalin (non-methylated)” value is recorded as 100%. For the same compound, the “increase in the capillary resistance” value in the data set on guinea pig is 82%.

For the compound `O=C(c1ccc(O)c(O)c1)c1cc(O)c(O)c(O)c1` [3,3',4,4' ,5'-pentahydroxybenzophenone, 3,3',4,4',5'-pentahydroxybenzophenone], the “protection of adrenalin (non-methylated)” value in data set [1] is reported as 100%. Further, the “anti-inflammation effect on vessels” value in the data set with mice was “anti-inflammatory properties”.

On to `O=C(c1ccc(O)c(O)c1)c1ccc(O)c(O)c1` [3,3',4,4'-tetrahydroxybenzophenone], for which, in data set [1], the “protection of adrenalin (non-methylated)” value was determined as 100%.

As for `Oc1ccc(Cc2ccc(O)c(O)c2)cc1O` [di-(3,4-dihydroxyphenyl) methane, di-(3,4-dihydroxyphenyl)-methane], the “protection of adrenalin (non-methylated)” value in data set [1] is recorded as no less than 90%.

`O=C(Cc1ccc(O)c(O)c1)c1ccc(O)c(O)c1` [β-(3,4-dihydroxyphenyl)-3,4-dihydroxyacetophenone]: the “protection of adrenalin (non-methylated)” value in data set [1] was no less than 90%.

In the case of `O=C(C(=O)c1ccc(O)c(O)c1)c1ccc(O)c(O)c1` [3,3',4,4'-tetrahydroxybenzile, 3,3',4,4'-tetrahydroxybenzil], the “protection of adrenalin (non-methylated)” value in data set [1] amounted to 100%.

For the compound `O=C(c1ccc(O)c(O)c1)c1ccc(O)c(O)c1O` [2,3,3',4,4'-pentahydroxybenzophenone], the “protection of adrenalin (non-methylated)” value in data set [1] turned out to be 100%.

Turning to `O=C(Cc1ccc(O)c(O)c1)c1ccc(O)c(O)c1O` [β-(3,4-dihydroxyphenyl)-2,3,4-trihydroxyacetophenone], the LD50 turned out to be 730 mg/kg in the data set “in vivo [2]” and 2000 mg/kg in “in vivo [3]”. Besides, the “increase in the capillary resistance” value in the data set with guinea pig came to 34%.

The record behind these values is US4015017A, “Certain biphenyl derivatives used to treat disorders caused by increased capillary permeability” (Laboratoires Pharmascience, priority 1974, dated 1977).
